Like-named read-outs stand apart in the source and are kept apart here.
Legend:
[1] = Pharmacokinetic study of IPA in rats after i.v. or oral administration (LC-MS/MS of plasma, noncompartmental analysis); type: in vivo, Sprague-Dawley rats; conditions: for AUC(0-inf) / MRT / half-life / AUC(0-t) / bioavailability / CL/F / Tmax / T max1: rat; for AUC(0-t): read-out: AUC(0~24); for bioavailability: oral, read-out: absolute bioavailability; for Tmax: read-out: T max 2; for C max1 / C max2: rat plasma; for C max1: n = 5
Description: Male Sprague-Dawley rats (220-250 g) from Shanghai Slac Laboratory Animal Co., Ltd. (Shanghai, China) (2018(hu)-08-0013) were housed in a climate-controlled facility (22 ± 2°C, 46 ± 20% relative humidity, 12 h light/dark cycle) with unlimited food and water access. After a 7-day acclimatization period, 20 rats were randomly assigned to undergo the administration of IPA via p.o. administration (50, 100, or 200 mg/kg) or via i.v. injection (5 mg/kg) for pharmacokinetic analyses. All animal studies received approval from the Animal Ethics Committee of the Naval Military Medical University. After developing and validating the above LC-MS/MS approach, it was employed to assess the pharmacokinetics of IPA following its intravenous or oral administration to rats as per the approved protocols discussed above. Briefly, after acclimatization, rats were fasted for 12 h and then randomized to undergo treatment with a 5 mg/kg i.v. dose of IPA or with oral IPA doses of 50, 100, or 200 mg/kg (n = 5/group). All IPA solutions were prepared in physiological saline and thoroughly mixed with CMC-Na. Blood samples (~0.4 mL) from these rats were collected in heparinized tubes at 0, 0.083, 0.167, 0.25, 0.5, 0.75, 1, 2, 3, 4, 6, 8, and 12 h following i.v. injection or at 0.167, 0.333, 0.5, 0.75, 1,1.5, 2, 4, 6, 8, 12, and 24 h following oral administration. Blood samples were spun for 5 min at 1,500 × g, after which plasma was collected and stored at -20°C prior to analysis. Plasma IPA concentrations were determined using the calibration curve established above based on peak area ratios from individual injection samples. The mean residence time (MRT0-t), area under the blood concentration-time curve (AUC0-∞, AUC0-t), body clearance (CL/F), and elimination half-life (T1/2) were quantified with the DAS 3.2.6 program (Chinese Pharmacology Society) via a noncompartmental approach. Concentration-time curves were used to establish maximum concentration (Cmax) and time to maximum concentration (Tmax) values. Data are given as means ± standard deviation (S.D.). Absolute bioavailability (F %) was determined as follows: F% = AUC0 − ∞(p.o.) dose (i.v.)/AUC0 − ∞(i.v.) dose (p.o.) × 100%.

[2] = Stability of IPA in rat plasma QC samples under storage conditions; type: in vitro ADME; conditions: for stability in rat plasma (in words): three QC concentrations; for Postpreparative, Measured: processed plasma sample; for Postpreparative, Measured / Long-term, Measured / Short-term, Measured / Three freeze-thaw, Measured: n = 5; for Long-term, Measured / Short-term, Measured / Three freeze-thaw, Measured: rat plasma
Description: IPA stability was examined by evaluating five replicate samples at the three QC concentration levels in a range of storage conditions. […] Processed sample stability was measured by incubating them for 24 h in the room temperature autosampler. In addition, long-term stability was measured following a 30-day storage period at -20°C, and freeze-thaw stability was measured by cycling samples from -20°C to 20°C three times. When the assay values associated with these samples were within a ±15% deviation from the nominal value, samples were considered to be stable.

[3] = male, Sprague-Dawley, plasma, iv, i.v. 5 mg/kg
[4] = male, Sprague-Dawley, plasma, po, p.o. 50 mg/kg
[5] = male, Sprague-Dawley, plasma, po, p.o. 100 mg/kg
[6] = male, Sprague-Dawley, plasma, po, p.o. 200 mg/kg

- AUC(0-inf) [1, 3]: 818 ± 66.2 ng·h/mL
- MRT [1, 3]: 1.4 ± 0.4 h
- half-life [1, 3]: 6.6 ± 5.9 h
- AUC(0-t) [1, 3]: 745 ± 140 ng·h/mL
- bioavailability ([1]; male, Sprague-Dawley, plasma, p.o. 50 mg/kg vs i.v. 5 mg/kg): 11.9%
- bioavailability ([1]; male, Sprague-Dawley, plasma, p.o. 100 mg/kg vs i.v. 5 mg/kg): 17.5%
- AUC(0-inf) [1, 4]: 923 ± 614 ng·h/mL
- MRT [1, 4]: 9.3 ± 1.3 h
- half-life [1, 4]: 10.4 ± 9.8 h
- AUC(0-t) [1, 4]: 887 ± 636 ng·h/mL
- CL/F ([1]; male, Sprague-Dawley, plasma, po, p.o. 50 mg/kg, read-out: CL/F (converted)): 1170 mL/min/kg
- Tmax [1, 4]: 6.4 ± 2.6 h
- AUC(0-inf) [1, 5]: 2640 ± 1640 ng·h/mL
- MRT [1, 5]: 7.6 ± 1.3 h
- half-life [1, 5]: 5.5 ± 2.3 h
- AUC(0-t) [1, 5]: 2600 ± 1630 ng·h/mL
- CL/F ([1]; male, Sprague-Dawley, plasma, po, p.o. 100 mg/kg, read-out: CL/F (converted)): 983 mL/min/kg
- Tmax [1, 5]: 6 ± 1.4 h
- AUC(0-inf) [1, 6]: 3190 ± 1720 ng·h/mL
- MRT [1, 6]: 7.9 ± 0.5 h
- half-life [1, 6]: 3.6 ± 1 h
- AUC(0-t) [1, 6]: 3180 ± 1720 ng·h/mL
- CL/F ([1]; male, Sprague-Dawley, plasma, po, p.o. 200 mg/kg, read-out: CL/F (converted)): 1330 mL/min/kg
- Tmax [1, 6]: 8.8 ± 1.1 h
- C max1 ([1]; i.v. 5 mg/kg): 1740.1 ± 456.0 ng/mL
- C max2 ([1]; p.o. 50 mg/kg): 61.6 ± 46.2 ng/mL
- C max1 ([1]; p.o. 50 mg/kg): 83.7 ± 32.9 ng/mL
- C max2 ([1]; p.o. 100 mg/kg): 284.9 ± 183.4 ng/mL
- C max1 ([1]; p.o. 100 mg/kg): 296.4 ± 75.1 ng/mL
- C max2 ([1]; p.o. 200 mg/kg): 286.9 ± 217.2 ng/mL
- C max1 ([1]; p.o. 200 mg/kg): 246.23 ± 94.4 ng/mL
- CL/F ([1]; i.v. 5 mg/kg): 6.1 ± 0.5 L/h
- T max1 ([1]; i.v. 5 mg/kg): 0 ± 0 h
- T max1 ([1]; p.o. 50 mg/kg): 0.9 ± 0.1 h
- T max1 ([1]; p.o. 100 mg/kg): 0.6 ± 0.3 h
- T max1 ([1]; p.o. 200 mg/kg): 0.65 ± 0.1 h
- stability in rat plasma (in words) ([2]; 3 rounds of freeze-thawing): remained stable
- stability in rat plasma (in words) ([2]; 3 h room temperature incubation): remained stable
- stability in rat plasma (in words) ([2]; 30 days of storage at -20°C): remained stable
- Postpreparative, Measured ([2]; spiked 10 ng·mL^−1, 24 h room temperature autosampler): 9.56 ± 0.88 ng/mL
- Postpreparative, Measured ([2]; spiked 400 ng·mL^−1, 24 h room temperature autosampler): 371.2 ± 1.44 ng/mL
- Postpreparative, Measured ([2]; spiked 2000 ng·mL^−1, 24 h room temperature autosampler): 2012 ± 0.12 ng/mL
- Long-term, Measured ([2]; spiked 10 ng·mL^−1, 30 days at -20°C): 10.79 ± 1.46 ng/mL
- Short-term, Measured ([2]; spiked 10 ng·mL^−1, room temperature): 9.65 ± 0.07 ng/mL
- Three freeze-thaw, Measured ([2]; spiked 10 ng·mL^−1, three cycles -20°C to 20°C): 10.27 ± 0.56 ng/mL
- Long-term, Measured ([2]; spiked 400 ng·mL^−1, 30 days at -20°C): 363.5 ± 1.82 ng/mL
- Short-term, Measured ([2]; spiked 400 ng·mL^−1, room temperature): 407.0 ± 0.34 ng/mL
- Three freeze-thaw, Measured ([2]; spiked 400 ng·mL^−1, three cycles -20°C to 20°C): 421.8 ± 1.08 ng/mL
- Long-term, Measured ([2]; spiked 2000 ng·mL^−1, 30 days at -20°C): 1908.3 ± 0.92 ng/mL
- Short-term, Measured ([2]; spiked 2000 ng·mL^−1, room temperature): 1840 ± 1.6 ng/mL
- Three freeze-thaw, Measured ([2]; spiked 2000 ng·mL^−1, three cycles -20°C to 20°C): 1967 ± 0.34 ng/mL
- postpreparation stability (in words) ([2]; room temperature for 24 h in the autosampler): remained stable
SMILES: C=C[C@@]1(C)CC[C@H]2C(=CC[C@@H]3[C@]2(C)CCC[C@@]3(C)C(=O)O)C1 [IPA, isopimaric acid]

Source: article PMC8536414, “The LC-MS/MS-Based Measurement of Isopimaric Acid in Rat Plasma and Application of Pharmacokinetics” (BioMed Research International, 2021)
